Test results taken from patent US8148370B2, “Polysubstituted derivatives of 2-aryl-6-phenyl-imidazo[1,2-a]pyridines, and preparation and therapeutic use thereof” (Sanofi-Aventis, priority 2008, dated 2012).

Columns and labels:
mouse Nurr1 receptor = biological target: T1, mouse Nurr1 receptor (Mus musculus, UniProt Q06219); assay: Evaluation of the in vitro activity on N2A cells (NBRE-luciferase reporter); type: cell-based; settings: N2A (Neuro-2A) cells stably transfected with 8NBRE-luciferase; products incubated 24 hours; luminescence
T1 construct: endogenously expressing the mouse Nurr1 receptor; host or cells: Neuro-2A (N2A) mouse neuroblastoma cells stably transfected with 8NBRE-luciferase
Protocol: The compounds according to the invention have formed the subject of pharmacological assays which make it possible to determine their modulatory effect on NOT. Evaluation of the In Vitro Activity on N2A Cells The activity of the compounds according to the invention was evaluated on a cell line (N2A) endogenously expressing the mouse Nurr1 receptor and stably transfected with the NOT binding response element (NBRE) coupled to the luciferase reporter gene. The EC50 values are between 0.01 and 10 μM. The assays were carried out according to the procedure described below. The Neuro-2A cell line comes from a standard commercial source (ATCC). The Neuro-2A clone was obtained, from a spontaneous tumour originating from an A albino mouse strain, by R. J Klebe et al. This Neuro-2A line is subsequently stably transfected with 8NBRE-luciferase. The N2A-8NBRE cells are cultured until confluence in 75 cm^2 culture flasks containing DMEM supplemented with 10% of foetal calf serum, 4.5 g/l of glucose and 0.4 mg/ml of geneticin. After a week of culture, the cells are recovered with 0.25% trypsin for 30 seconds and then resuspended in DMEM without phenol red, containing 4.5 g/l of glucose and 10% of Hyclone delipidized serum, and deposited into transparent-bottom 96-well white plates. The cells are deposited at a rate of 60 000 per well in 75 μl for 24 hours before the addition of the products. The products are applied in 25 μl and incubated for a further 24 hours. On the day of the measurement, an equivalent volume (100 μl) of Steadylite is added to each well and then left for a period of 30 minutes in order to obtain complete cell lysis and maximum signal production. The plates are subsequently measured in a luminescence counter for microplates after having been sealed with an adhesive film. The products are prepared in the form of a stock solution at 10^−2M and then diluted in 100% of DMSO. Each product concentration is prediluted in culture medium before incubation with the cells, thus containing 0.625% final concentration of DMSO. […] It is thus apparent that the compounds according to the invention have a modulatory effect on NOT.

T1 sequence (Q06219 whole entry): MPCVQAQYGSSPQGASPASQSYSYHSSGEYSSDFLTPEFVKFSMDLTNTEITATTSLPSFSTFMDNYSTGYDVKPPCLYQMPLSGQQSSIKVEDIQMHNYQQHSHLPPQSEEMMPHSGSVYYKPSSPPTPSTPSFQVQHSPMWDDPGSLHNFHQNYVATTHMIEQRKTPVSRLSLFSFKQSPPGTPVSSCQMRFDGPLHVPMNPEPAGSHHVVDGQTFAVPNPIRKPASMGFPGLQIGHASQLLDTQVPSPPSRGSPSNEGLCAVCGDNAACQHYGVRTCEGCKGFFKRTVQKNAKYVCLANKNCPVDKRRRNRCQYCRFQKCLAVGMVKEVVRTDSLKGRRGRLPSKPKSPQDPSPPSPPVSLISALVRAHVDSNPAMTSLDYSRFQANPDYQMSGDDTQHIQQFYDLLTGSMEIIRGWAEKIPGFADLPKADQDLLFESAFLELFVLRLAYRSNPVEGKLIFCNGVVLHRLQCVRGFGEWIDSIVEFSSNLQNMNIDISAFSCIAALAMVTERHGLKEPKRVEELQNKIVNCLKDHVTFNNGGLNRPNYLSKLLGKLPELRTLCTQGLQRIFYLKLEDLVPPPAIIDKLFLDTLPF

SMILES	EC50 (mouse Nurr1 receptor) [nM]	melting point [°C]
OC1CCCc2ccc(-c3ccc4nc(-c5ccc(Cl)cc5)cn4c3)cc21 (centres unmarked) [Compound 8, 7-[2-(4-Chlorophenyl)imidazo[1,2-a]pyridin-6-yl]-1,2,3,4-tetrahydronaphth-1-ol]	42	–
CC(O)c1cccc(-c2ccc3nc(-c4ccc(Cl)cc4)cn3c2)c1F (centres unmarked) [Compound 2, 1-{3-[2-(4-Chlorophenyl)imidazo[1,2-a]pyridin-6-yl]-2-fluorophenyl}ethanol]	–	193 to 195
COc1cccc(-c2cn3cc(-c4ccc(CO)c(F)c4)ccc3n2)c1 [Compound 17, {2-Fluoro-4-[2-(3-methoxyphenyl)imidazo[1,2-a]pyridin-6-yl]phenyl}methanol]	93	–
COCc1c(F)ccc(-c2ccc3nc(-c4ccc(C)cc4)cn3c2)c1F [Compound 37, 6-(2,4-Difluoro-3-methoxymethylphenyl)-2-(p-tolyl)imidazo[1,2-a]pyridine]	74	–
OCc1cc(-c2ccc3nc(-c4ccc(Cl)cc4)cn3c2)ccc1F [Compound 11, {5-[2-(4-Chlorophenyl)imidazo[1,2-a]pyridin-6-yl]-2-fluorophenyl}methanol]	7.5	–
COc1cccc(-c2cn3cc(-c4cc(C(C)(C)O)ccc4F)ccc3n2)c1 [Compound 33, 2-{4-Fluoro-3-[2-(3-methoxyphenyl)imidazo[1,2-a]pyridin-6-yl]phenyl}propan-2-ol]	25	–
OCc1c(F)ccc(-c2ccc3nc(-c4cccc(Br)c4)cn3c2)c1F [Compound 42, {3-[2-(3-Bromophenyl)imidazo[1,2-a]pyridin-6-yl]-2,6-difluorophenyl}methanol]	1	–
OCc1c(F)ccc(-c2ccc3nc(-c4ccc(Cl)cc4)cn3c2)c1F [Compound 3, {3-[2-(4-Chlorophenyl)imidazo[1,2-a]pyridin-6-yl]-2,6-difluorophenyl}methanol]	0.5	214 to 216
CC(O)c1ccc(F)c(-c2ccc3nc(-c4ccc(Cl)cc4)cn3c2)c1 (single isomer, unassigned; (+)) [Compound 29, (+)-1-{3-[2-(4-Chlorophenyl)imidazo[1,2-a]pyridin-6-yl]-4-fluorophenyl}ethanol]	0.1	–
O=[N+]([O-])c1ccc(-c2cn3cc(-c4cccc(F)c4CO)ccc3n2)cc1 [Compound 38, {2-Fluoro-6-[2-(4-nitrophenyl)imidazo[1,2-a]pyridin-6-yl]phenyl}methanol]	211	–
